In patent publication US8624036B2, “2-aryl-propionic acids and derivatives and pharmaceutical compositions containing them” (Dompe S.p.A., priority 2008, dated 2014):
Marks after values point to notes of the source that are not given here.

Legend:
[1] = tested on: GRO-α induced chemotaxis of PMNs; test: GRO-α (CXCL1) induced chemotaxis of human PMNs; type: cell-based; details: compound at 10^−8 M; for inhibition at 0.01 µM: Homo sapiens
Protocol: (§1) The compounds of the invention of formula (I) were evaluated in vitro for their ability to inhibit chemotaxis of polymorphonucleate leukocytes (hereinafter referred to as PMNs) and monocytes induced by the fractions of CXCL8 and GRO-α. For this purpose, in order to isolate the PMNs from heparinized human blood, taken from healthy adult volunteers, mononucleates were removed by means of sedimentation on dextran (W. J. Ming et al., J. Immunol., 138, 1469, 1987). The cell vitality was calculated by exclusion with Trypan blue, whilst the ratio of the circulating polymorphonucleates was estimated on the cytocentrifugate after staining with Diff Quick.
GRO-α induced chemotaxis inhibition was evaluated in an analogous assay.
(§2) In the chemotaxis experiments, the PMNs were incubated with the compounds of the invention of formula (I) for 15′ at 37° C. in an atmosphere containing 5% CO2. During the chemotaxis assay (W. Falket et al., J. Immunol. Methods, 33, 239, 1980) PVP-free filters with a porosity of 5 μm and microchambers suitable for replication were used.
(§3) The compounds of the invention in formula (I) were evaluated at a concentration ranging between 10^−6 and 10^−10 M; for this purpose they were added, at the same concentration, both to the lower pores and the upper pores of the microchamber. Evaluation of the ability of the compounds of the invention of formula (I) to inhibit the chemotaxis of human monocytes was carried out according to a disclosed method (J. Van Damme et al., Eur. J. Immunol., 19, 2367, 1989).

[2] = tested on: CXCL8 induced chemotaxis of PMNs; test: CXCL8 induced chemotaxis of human PMNs; type: cell-based; details: CXCL8 10^−9 M; for inhibition at 0.001 µM / inhibition at 0.01 µM: Homo sapiens; for inhibition at 0.001 µM / CXCL8 (% inhibition at 10^−9 M): compound at 10^−9 M; for inhibition at 0.01 µM: read-out: CXCL8 (% inhibition), tested at 10^−8 M
Protocol: as §1
In the CXCL8 induced chemotaxis assay human recombinant CXCL8 (Pepro Tech) was used as stimulating agent in the chemotaxis experiments: the lyophilized protein was dissolved in a volume of HBSS containing 0.2% bovin serum albumin (BSA) in order to obtain a stock solution having a concentration of 10^−5 M to be diluted in HBSS to a concentration of 10^−9 M, for the chemotaxis assays.
as §2, §3

[3] = tested on: transient cerebral ischemia induced by occlusion of the middle cerebral artery; test: Transient cerebral ischemia by middle cerebral artery (MCA) occlusion in rats; type: in vivo; details: short-term effect (24 hours)
Protocol: The compounds of the present invention are particularly useful in the prevention and treatment of damages caused by ischemia/reperfusion, specifically in the protection from the functional injury induced by temporary cerebral middle cerebral artery (MCA) occlusion. Specifically, compound 3a was evaluated in terms of efficacy in a model of transient cerebral ischemia induced in rats by occlusion of the middle cerebral artery (MCA). The short-term effect (24 hours) of 3a on cerebral myeloperoxidase (MPO) activity, a marker of PMN infiltration, brain damage and neurological deficits, was investigated.

[4] = compound at 10^−8 M (footnote *)

Compound | inhibition at 0.01 µM [1] [%] | inhibition at 0.001 µM [2] [%] | further results
CC(C)[C@H](NC(=O)[C@@H](C)c1ccc(Nc2nc(C(F)(F)F)cs2)cc1)C(=O)O [Compound 17, (2S)-3-Methyl-2-{[(2S)-2-(4-{[4-(trifluoromethyl)-1,3-thiazol-2-yl]amino}phenyl)propanoyl]amino}butanoic acid] | 40 ± 12 | 39 ± 2 | melting point: 99 to 101 °C
C[C@H](NC(=O)[C@@H](C)c1ccc(Nc2nc(C(F)(F)F)co2)cc1)C(N)=O [Compound 25, (2S)—N-[(1S)-2-Amino-1-methyl-2-oxoethyl]-2-(4-{[4-(trifluoromethyl)-1,3-oxazol-2-yl]amino}phenyl) propanamide] | 39 ± 14 | 46 ± 12 | 
CC(C(=O)O)c1ccc(Nc2nc(C(C)(C)C)cs2)cc1 (stereo not drawn) [Compound 6, 2-{4-[(4-tert-Butyl-1,3-thiazol-2-yl)amino]phenyl}propanoic acid] | 36 ± 10 |  | inhibition at 0.01 µM [2, 4]: 55 ± 10%
C[C@H](C(=O)NO)c1ccc(Nc2nc(C(F)(F)F)cs2)cc1 [Compound 10, (2S)—N-Hydroxy-2-(4-{[4-(trifluoromethyl)-1,3-thiazol-2-yl]amino}phenyl) propanamide] | 47 ± 12 | 51 ± 10 | 
C[C@H](C(=O)NS(=O)(=O)C(F)(F)F)c1ccc(Nc2nc(C(F)(F)F)cs2)cc1 [Compound 12] |  |  | CXCL1 (% inhibition at 10^−8 M) [1]: 30 ± 7%; CXCL8 (% inhibition), tested at 10^−8 M [2, 4]: 48 ± 13* %
C[C@H](C(=O)[O-])c1ccc(Nc2nc(C(F)(F)F)cs2)cc1.[Na+] [Compound 3a, Sodium (2S)-2-(4-{[4-(trifluoromethyl)-1,3-thiazol-2-yl]amino}phenyl)propanoate] |  |  | CXCL1 (% inhibition at 10^−8 M) [1]: 55 ± 8%; CXCL8 (% inhibition at 10^−9 M) [2]: 64 ± 9%; PMN infiltrate (cerebral myeloperoxidase (MPO) activity) [3]: efficacious in reducing PMN infiltrate; infarct size (brain damage) [3]: efficacious in reducing; neurological functions (neurological deficits) [3]: improving significantly neurological functions
Cc1csc(Nc2ccc(C(C)C(=O)O)cc2)n1 (stereo not drawn) [Compound 4, 2-{4-[(4-Methyl-1,3-thiazol-2-yl)amino]phenyl}propanoic acid] | 45 ± 10 |  | inhibition at 0.01 µM [2, 4]: 46 ± 6%
C[C@H](C(N)=O)c1ccc(N(C)c2nc(C(F)(F)F)co2)cc1 [Compound 23, (2S)-2-(4-{Methyl-[4-(trifluoromethyl)-1,3-oxazol-2-yl]amino}phenyl)propanamide] | 39 ± 2 | 45 ± 13 | 
C[C@H](C(N)=O)c1ccc(Nc2nc(C(C)(C)C)cs2)cc1 [Compound 15, (2S)-2-{4-[(4-tert-Butyl-1,3-thiazol-2-yl)amino]phenyl}propanamide] | 45 ± 10 | 48 ± 8 | 
C[C@H](C(N)=O)c1ccc(Nc2nc(C(F)(F)F)co2)cc1 [Compound 22, (2S)-2-(4-{[4-(Trifluoromethyl)-1,3-oxazol-2-yl]amino}phenyl) propanamide] | 49 ± 6 | 58 ± 5 | 
C[C@H](C(=O)O)c1ccc(N(C)c2nc(C(F)(F)F)co2)cc1 [Compound 20, (2S)-2-(4-{Methyl[4-(trifluoromethyl)-1,3-oxazol-2-yl]amino}phenyl)propanoic acid] | 44 ± 7 | 47 ± 8 | 
C[C@H](C(=O)O)c1ccc(Nc2nc(C(F)(F)F)cs2)cc1 [Compound 3, (2S)-2-(4-{[4-(Trifluoromethyl)-1,3-thiazol-2-yl]amino}phenyl)propanoic acid] | 58 ± 6 | 66 ± 11 | 
C[C@H](C(=O)O)c1ccc(N(C)c2nc(C(F)(F)F)cs2)cc1 [Compound 9, (2S)-2-(4-{methyl[4-(trifluoromethyl)-1,3-thiazol-2-yl]amino}phenyl)propanoic acid] | 40 ± 12 | 41 ± 7 | 
CC(C(=O)O)c1ccc(N(C)c2nc(C(F)(F)F)cs2)cc1 (stereo not drawn) [Compound 8, 2-(4-{Methyl[4-(trifluoromethyl)-1,3-thiazol-2-yl]amino}phenyl)propanoic acid] | 39 ± 10 |  | inhibition at 0.01 µM [2, 4]: 45 ± 5%
C[C@H](C(N)=O)c1ccc(N(C)c2nc(C(F)(F)F)cs2)cc1 [Compound 14, (2S)-2-(4-{Methyl[4-(trifluoromethyl)-1,3-thiazol-2-yl]amino}phenyl)propanamide] | 34 ± 13 | 45 ± 14 | 
C[C@H](C(=O)N[C@H](C)C(=O)O)c1ccc(Nc2nc(C(F)(F)F)cs2)cc1 [Compound 16, (2R)-2-{[(2S)-2-(4-{[4-(Trifluoromethyl)-1,3-thiazol-2-yl]amino}phenyl)propanoyl]amino}propanoic acid] | 30 ± 15 | 42 ± 7 | 
CC(C(=O)O)c1ccc(Nc2nc(C(F)(F)F)cs2)cc1 (stereo not drawn) [Compound 1, 2-(4-{[4-(Trifluoromethyl)-1,3-thiazol-2-yl]amino}phenyl)propanoic acid] | 40 ± 6 |  | inhibition at 0.01 µM [2, 4]: 43 ± 7%
C[C@H](C(=O)O)c1ccc(Nc2nc(C(F)(F)F)co2)cc1 [Compound 19, (2S)-2-(4-{[4-(Trifluoromethyl)-1,3-oxazol-2-yl]amino}phenyl)propanoic acid] | 36 ± 11 | 44 ± 10 | 
C[C@H](C(=O)NS(C)(=O)=O)c1ccc(Nc2nc(C(F)(F)F)cs2)cc1 [Compound 11, (2S)—N-(Methylsulfonyl)-2-(4-{[4-(trifluoromethyl)-1,3-thiazol-2yl]amino}phenyl) propanamide] | 39 ± 7 | 54 ± 16 | 
CC(C(=O)O)c1ccc(Nc2nc(C(F)(F)F)co2)cc1 (stereo not drawn) [Compound 18, 2-{4-[(4-Trifluoromethyl)-oxazol-2-yl]amino}phenyl propionic] | 60 ± 9 |  | inhibition at 0.01 µM [2, 4]: 47 ± 12%
C[C@H](C(=O)O)c1ccc(Nc2nc(C(C)(C)C)cs2)cc1 [Compound 7, (2S)-2-{4-[(4-tert-Butyl-1,3-thiazol-2-yl)amino]phenyl}propanoic acid] | 45 ± 10 | 50 ± 8 | 
Cc1csc(Nc2ccc([C@H](C)C(=O)O)cc2)n1 [Compound 5, (2S)-2-{4-[(4-Methyl-1,3-thiazol-2-yl)amino]phenyl}propanoic acid] | 38 ± 10 | 40 ± 11 | 
C[C@H](C(=O)NS(C)(=O)=O)c1ccc(Nc2nc(C(F)(F)F)co2)cc1 [Compound 21, (2S)—N-(Methylsulfonyl)-2-(4-{[4-(trifluoromethyl)-1,3-oxazol-2-yl]amino}phenyl) propanamide] |  |  | CXCL1 (% inhibition at 10^−8 M) [1]: 37 ± 2%; CXCL8 (% inhibition at 10^−9 M) [2]: 43 ± 6%
C[C@H](C(N)=O)c1ccc(Nc2nc(C(F)(F)F)cs2)cc1 [Compound 13] | 44 ± 9 | 47 ± 3 | melting point: 204 to 205 °C
C[C@H](NC(=O)[C@@H](C)c1ccc(Nc2nc(C(F)(F)F)co2)cc1)C(=O)O [Compound 24, (2S)-2-{[(2S)-2-(4-{[4-(Trifluoromethyl)-1,3-oxazol-2-yl]amino}phenyl)propanoyl]amino}propanoic acid] | 34 ± 8 |  | inhibition at 0.01 µM [2, 4]: 54 ± 12%
CC(C)(C(=O)O)c1ccc(Nc2nc(C(F)(F)F)cs2)cc1 [Compound 2, 2-Methyl-2-(4-{[4-(trifluoromethyl)-1,3-thiazol-2-yl]amino}phenyl)propanoic acid] | 42 ± 9 | 56 ± 10 | 
